One block for each compound: values may come before it. Active and inactive are the calls of the source. The rule behind the calls is not given here.
How the values were obtained:
[1] = Antiproliferative activity against HEK293 cells assessed as inhibition of cell growth measured after 48 hrs by SRB method; type: toxicity, cell-based; details: human
MDA-MB-231 [2] = experiment: Antiproliferative activity against human MDA-MB-231 cells; type: functional, cell-based
MDA-MB-231 [3] = experiment: Antiproliferative activity against human MDA-MB-231 cells assessed as inhibition of cell growth measured after 48 hrs by SRB method; type: functional, cell-based; details: MDA-MB-231, 48 h
A549 [4] = experiment: Antiproliferative activity against human A549 cells assessed as inhibition of cell growth measured after 48 hrs by SRB method; type: functional, cell-based; details: A549, 48 h
MDA-MB-468 [5] = experiment: Antiproliferative activity against human MDA-MB-468 cells assessed as inhibition of cell growth measured after 48 hrs by SRB method; type: functional, cell-based; details: MDA-MB-468, 48 h
MCF7 [6] = experiment: Antiproliferative activity against human MCF7 cells assessed as inhibition of cell growth measured after 48 hrs by SRB method; type: functional, cell-based; details: MCF7, 48 h
HCT-116 [7] = experiment: Antiproliferative activity against human HCT-116 cells assessed as inhibition of cell growth measured after 48 hrs by SRB method; type: functional, cell-based; details: HCT-116, 48 h
HCT-116 [8] = experiment: Antiproliferative activity against human HCT-116 cells assessed as inhibition of cell growth at 20 uM by SRB method relative to control; type: functional; design: scale not given: the % may be the effect or the level left
MDA-MB-231 [9] = experiment: Induction of apoptosis in human MDA-MB-231 cells assessed as chromatin condensation at 4 to 16 uM measured after 48 hrs by DAPI staining based fluorescent microscopic analysis; type: functional, cell-based; details: dose 4-16 µM
[10] = Selectivity index, ratio of IC50 for HEK293 cells to IC50 for human MCF7 cells; type: toxicity; details: HEK293 cells versus MCF7 cells, read-out: Ratio IC50
MDA-MB-231 [11] = experiment: Induction of apoptosis in human MDA-MB-231 cells assessed as reduction in Bcl-2 expression by Western blot analysis; type: functional, cell-based
MCF7 [12] = experiment: Antiproliferative activity against human MCF7 cells assessed as inhibition of cell growth at 20 uM by SRB method relative to control; type: functional; design: scale not given: the % may be the effect or the level left
[13] = Selectivity index, ratio of IC50 for HEK293 cells to IC50 for human MDA-MB-231 cells; type: toxicity; details: HEK293 cells versus MDA-MB-231 cells, read-out: Ratio IC50
MDA-MB-231 [14] = experiment: Inhibition of colony formation in human MDA-MB-231 cells incubated for 24 hrs; type: functional, cell-based; details: dose 4-16 µM
MDA-MB-231 [15] = experiment: Inhibition of colony formation in human MDA-MB-231 cells assessed as reduction in colony size at 4 to 16 uM incubated for 24 hrs; type: functional, cell-based; details: dose 4-16 µM
MDA-MB-231 [16] = experiment: Induction of apoptosis in human MDA-MB-231 cells assessed as upregulation of bax expression by Western blot analysis; type: functional, cell-based
MDA-MB-231 [17] = experiment: Inhibition of colony formation in human MDA-MB-231 cells assessed as reduction in number of colonies at 4 to 16 uM incubated for 24 hrs; type: functional, cell-based; details: dose 4-16 µM
MDA-MB-231 [18] = experiment: Induction of ROS generation in human MDA-MB-231 cells measured after 48 hrs by DCFDA staining based fluorescent microscopic analysis; type: functional, cell-based; details: dose 4-16 µM
MDA-MB-231 [19] = experiment: Induction of apoptosis in human MDA-MB-231 cells assessed as cell blebbing at 4 to 16 uM measured after 48 hrs by DAPI staining based fluorescent microscopic analysis; type: functional; details: dose 4-16 µM
[20] = Selectivity index, ratio of IC50 for HEK293 cells to IC50 for human MDA-MB-468 cells; type: toxicity; details: HEK293 cells versus MDA-MB-468 cells, read-out: Ratio IC50
MDA-MB-468 [21] = experiment: Antiproliferative activity against human MDA-MB-468 cells assessed as inhibition of cell growth at 20 uM by SRB method relative to control; type: functional; design: scale not given: the % may be the effect or the level left
MDA-MB-231 [22] = experiment: Induction of apoptosis in human MDA-MB-231 cells assessed as effect on bax/bcl-2 ratio by Western blot analysis; type: functional, cell-based
MDA-MB-231 [23] = experiment: Antiproliferative activity against human MDA-MB-231 cells assessed as inhibition of cell growth at 20 uM by SRB method relative to control; type: functional; design: scale not given: the % may be the effect or the level left
Cell membrane = experiment: Induction of mitochondrial membrane potential loss in human MDA-MB-231 cells assessed as reduction in fluorescence measured after 48 hrs by rhodamine-123 dye based fluorescence assay; details: dose 4-16 µM
A549 [24] = experiment: Antiproliferative activity against human A549 cells assessed as inhibition of cell growth at 20 uM by SRB method relative to control; type: functional; design: scale not given: the % may be the effect or the level left
MDA-MB-231 [25] = experiment: Induction of apoptosis in human MDA-MB-231 cells assessed as increase in caspase-3 expression by Western blot analysis; type: functional, cell-based

IC50 (MCF7 [6]): 22.7 µM
IC50 (HCT-116 [7]): 17.4 µM
Structure (SMILES): COc1ccc(/C=C/C(=O)c2ccc(OCC(=O)N3CCCCC3)cc2)cc1
IC50 at 48 h [1]: 10.8 µM

IC50 (MDA-MB-231 [3]): 9.42 µM
IC50 (A549 [4]): 17.1 µM
IC50 (MCF7 [6]): 16.2 µM
Activity (Cell membrane): Dose-Dependent Effect
IC50 (HCT-116 [7]): 18.3 µM
IC50 (MDA-MB-468 [5]): 10.1 µM
Structure (SMILES): COc1ccc(/C=C/C(=O)c2ccc(OCC(=O)N3CCCC3)cc2)cc1
Activity (HCT-116 [8]): ~60%
Activity (MDA-MB-231 [9]): Active
selectivity ratio [10]: 2.41
Activity (MDA-MB-231 [11]): Active
Activity (MCF7 [12]): ~60%
selectivity ratio [13]: 4.14
inhibition (MDA-MB-231 [14]): Dose-Dependent Effect
inhibition (MDA-MB-231 [15]): Active
Activity (MDA-MB-231 [16]): Active
inhibition (MDA-MB-231 [17]): Active
Activity (MDA-MB-231 [18]): Dose-Dependent Effect
Activity (MDA-MB-231 [19]): Active
selectivity ratio [20]: 3.85
Activity (MDA-MB-468 [21]): ~60%
Activity (MDA-MB-231 [22]): Active
Activity (MDA-MB-231 [23]): ~60%
Activity (A549 [24]): ~60%
IC50 at 48 h [1]: 39.1 µM
Activity (MDA-MB-231 [25]): Active

IC50 (A549 [4]): 45.4 µM
IC50 (HCT-116 [7]): 15.2 µM
Structure (SMILES): COc1ccc(/C=C/C(=O)c2ccc(OCC(=O)N3CCSCC3)cc2)cc1

Further lines, the compound ahead of its results:

Structure (SMILES): COc1ccc(/C=C/C(=O)c2ccc(OCC(=O)NCCc3ccccc3)cc2)cc1
IC50 at 48 h [1]: 23.4 µM

Structure (SMILES): COc1cccc(C(=O)/C=C/c2ccc(N(CCCl)CCCl)cc2)c1
IC50 (MDA-MB-231 [2]): 3.94 mM

Structure (SMILES): COc1ccc(/C=C/C(=O)c2ccc(OCC(=O)Nc3ncccc3Cl)cc2)cc1
IC50 (MDA-MB-231 [3]): 24.1 µM
IC50 (A549 [4]): 35.4 µM
IC50 (MDA-MB-468 [5]): 25.2 µM

Structure (SMILES): COc1ccc(/C=C/C(=O)c2ccc(OCC(=O)NC3CCCCC3)cc2)cc1
IC50 (HCT-116 [7]): 18.9 µM

Structure (SMILES): COc1ccc(/C=C/C(=O)c2ccc(OCC(=O)NCc3cc(OC)c(OC)c(OC)c3)cc2)cc1
IC50 at 48 h [1]: 15.2 µM
IC50 (HCT-116 [7]): 10.5 µM
